In patent US20070053934A1, “Polyvalent multimeric composition containing active polypeptides, pharmaceutical compositions and methods of using the same” (priority 2005, published 2007):
Where a SMILES comes first, the peptide text is derived from it. Bridges are numbered along the chain shown (N, C = ends). Roman numbers before positions name the chains, in order. Where no end group is shown, it is not given here. Side-chain parts run from the residue outwards. [ ]: non-standard residue; d: D form. βAla = NCCC(=O)O

What was measured:
HIV-1 IIIB = assay: HIV inhibition assay, p24 readout
gp120 = gp120 (Human immunodeficiency virus type 1 group M subtype B, UniProt P03375); conditions: read-out: Kd of gp340 binding to gp120; earlier studies of the applicants
[1] = tested on: HIV-1 attachment to and infection of H9 cells; assay: Viral attachment assay; type: cell-based; conditions: for cell-associated virus (HIV-1 attachment to target cells): H9 cells, cell-associated p24 after virus exposure
Protocol: FIG. 8. Effect of gp-340 or N-SRCR on HIV-1 attachment and infection of cells. The H9 cells were treated with increasing concentrations of gp-340 (A and B) or N-SRCR (C) before and during HIV-1 exposure. After 4 hours, the cells were extensively washed of virus and either treated with or without trypsin at room temperature for 10 min and lysed for total cell-associated p24 measurement or re-fed with fresh medium to continue culture for 4 days to determine infection (data only for gp-340 shown). The values were average of triplicate wells and bars represent standard errors.
0.5×10^6 H9 cells were pre-incubated with purified gp-340 ranging from 2 to 10 μg/ml, or N-SRCR at 0.5 μg/ml at 37° C. for 60 min before viral exposure at 50 ng/ml p24 at 37° C. for 3 hours. The exposed cells were washed repeatedly to remove unbound virus, either lysed for cell-associated viral p24 measurement, treated with trypsin for 5 min before lysis, or refed with culture medium and maintained in culture for an additional 4 days. Culture medium was collected, cleared of cellular debris, lysed and viral p24 was measured.

HIV = assay: Inhibition of HIV infectivity by gp340-derived peptides; type: cell-based; conditions: peptide concentrations up to 10 ug/ml
fresh sheep erythrocytes [2] = type: cell-based; conditions: pH 7.2
Protocol: Hemolytic activity of model peptides was assessed on fresh sheep erythrocytes (Fitzgerald Inc., Concord, Mass.). Peptide concentrations yielding 50% hemolysis were used as hemolytic dose (HD50) determined from dose-response curves (Oren, Z., and Y. Shai. 1997. Selective lysis of bacteria but not mammalian cells by diastereomers of melittin: Structure-function study. Biochem. 36:1826-1835). […] The resulting supernatant was diluted by a factor of 40 in distilled water. The absorbances of the supernatant at λ=540 nm (OD540) were measured in the UV Spectrophotometer. Zero hemolysis and 100% hemolysis controls were obtained by incubating the cells with buffer and 1% Triton-X, respectively. Hemolytic index (HI) was defined as HI=HD50/IC50.

S. aureus (ATCC BAA-44) = conditions: ATCC BAA-44, 18 h
E. Coli (D31) [3] = conditions: read-out: IC50 E. coli; 50% inhibition of growth, 18 h; mean of three experiments
[4] = tested on: HIV-1 gp120MN V3 peptide P6283; conditions: Ca++-dependent, ELISA
HIV-1 BaL = assay: HIV inhibition assay, p24 readout; conditions: IL-2 stimulated human PBMCs, p24 in culture supernatant
HIV-1 NL4-3 = assay: HIV inhibition assay, p24 readout; conditions: H9 cells, p24 in culture supernatant
[5] = tested on: B. anthracis (Sterne 34F2); conditions: mean of three experiments
S Aureus (ATCC BAA-44) = conditions: mean of three experiments
E. Coli (D31) [6] = tested on: E. Coli (D31)
fresh sheep erythrocytes [7] = assay: Hemolysis assay HD50 (Examples 1B and 2); type: cell-based; conditions: red cells of sheep
Protocol: Stock solutions of samples were prepared by the same procedure as in antibacterial assays. Hemolytic activity of monomeric peptides and multivalent ones were assessed on fresh sheep erythrocytes (Fitzgerald, Inc., MA) in 35 mM PBS buffer, 150 mM NaCl, pH 7.0. Peptide concentrations corresponding to 50% hemolysis were used as hemolytic dose (HD50) determined from dose-response curve (National Committee for Clinical Laboratory Standards. 2004, Methods for dilution antimicrobial susceptibility tests for bacteria that grow aerobically; sixth edition, approved standard M100-S14. National Committee for Clinical Laboratory Standards. Wayne, Pa.). Aliquots of cell suspension were mixed in eppendorf tubes with varying volumes of stocks and buffer for a total volume of 1 mL. Solutions containing same volume of DMSO without samples were used as control. These tubes were incubated at 37° C. for 1 hr, and then spun down at 3,000 rpm for 5 mins. The resulting supernatant was diluted by a factor of 40 in distilled water. The absorbances of the dilutions at 540 nm were measured in the Genesys 5 Spectrophotometer (Thermo Spectronic, Inc., NY). Zero hemolysis and 100% hemolysis controls were obtained by incubating the cells with buffer and 20% Tween, respectively. Hemolytic index (HI) was defined as HI=HD50/IC50. […]

[8] = H9 cells, p24 in culture supernatant

gp340: 340 kDa salivary agglutinin glycoprotein of the SRCR superfamily; recombinant or purified from saliva
blocking HIV-1 infection by expressed full length gp340 (HIV-1 IIIB; culture supernatant of transfected 293 cells, compared with SAG from saliva): as active in blocking HIV-1 infection as SAG purified from human saliva
Kd (gp120): 5.8 nM
viral replication in the treated cells ([1]; H9 cells cultured 4 days after exposure, p24): significantly inhibited
cell-associated virus (HIV-1 attachment to target cells) [1]: not affected

QGRVEVLYRGSWGEVC [16 mer]
inhibition of HIV infectivity (anti-HIV activity) (HIV): only modest inhibition of HIV infectivity

N=C(N)NCCC[C@H](NC(=O)[C@H](Cc1c[nH]c2ccccc12)NC(=O)[C@H](CCCNC(=N)N)NC(=O)[C@H](Cc1c[nH]c2ccccc12)NC(=O)[C@H](CCCNC(=N)N)NC(=O)[C@H](Cc1c[nH]c2ccccc12)NC(=O)[C@H](CCCNC(=N)N)NC(=O)[C@H](Cc1c[nH]c2ccccc12)NC(=O)[C@@H](N)CCCNC(=N)N)C(=O)N[C@@H](Cc1c[nH]c2ccccc12)C(N)=O [(RW)5—NH2]
HD50 Red blood cell (fresh sheep erythrocytes [2]): 76 µM
IC50 (S. aureus (ATCC BAA-44)): 3.6 µM
IC50 (E. Coli (D31) [3]): 6.2 µM

GRVEYLXBGSW (GRVEVLYRGSW) [11 mer]
inhibition of HIV infectivity (anti-HIV activity) (HIV): low, but measurable anti-HIV activity

RWRWRW-NH2 [(RW)3—NH2]
HD50 Red blood cell (fresh sheep erythrocytes [2]): 210 µM
IC50 (S. aureus (ATCC BAA-44)): 8 µM
IC50 (E. Coli (D31) [3]): 16 µM

N=C(N)NCCC[C@H](N)C(=O)N[C@@H](Cc1c[nH]c2ccccc12)C(N)=O [RW—NH2] (H-Arg-Trp-NH2)
HD50 Red blood cell (fresh sheep erythrocytes [2]): 8900 µM
IC50 (S. aureus (ATCC BAA-44)): 2100 µM
IC50 (E. Coli (D31) [3]): 4300 µM

RWRWRWRW-NH2 [(RW)4—NH2]
HD50 Red blood cell (fresh sheep erythrocytes [2]): 100 µM
IC50 (S. aureus (ATCC BAA-44)): 5.1 µM
IC50 (E. Coli (D31) [3]): 9.6 µM

N-SRCR: recombinant N-terminal gp340 fragment: first SRCR domain and half of first SID, with His-6 and HSV gD tags, 35 kDa
binding to the peptide P6283 [4]: comparable to binding of gp-340
ID75 for IIIB (HIV-1 IIIB; [8]): 2 µg/mL
ID90 for IIIB (HIV-1 IIIB; [8]): not achieved
binding to immobilized gp120 (HIV-1 gp120; gp120 captured with antibody D7324, ELISA): shown to bind immobilized gp120
binding to gp120 upon sCD4 treatment of gp120 (HIV-1 gp120; sCD4 pre-binding, detected by Ab-1527): significantly increased
concentration not toxic to H9 cells (H9 cells): up to 10 μg/ml
estimated ID90 for BaL (HIV-1 BaL): 1.1 µg/mL
estimated ID90 for NL4-3 (HIV-1 NL4-3): 1.5 µg/mL
cell-associated virus (HIV-1 attachment to target cells) [1]: did not effect viral attachment

CC(=O)N[C@@H](Cc1c[nH]c2ccccc12)C(=O)N[C@@H](CCCNC(=N)N)C(=O)N[C@@H](Cc1c[nH]c2ccccc12)C(=O)N[C@@H](CCCNC(=N)N)C(=O)NCCCC[C@H](NC(=O)[C@H](CCCNC(=N)N)NC(=O)[C@H](Cc1c[nH]c2ccccc12)NC(=O)[C@H](CCCNC(=N)N)NC(=O)[C@H](Cc1c[nH]c2ccccc12)NC(C)=O)C(=O)NCCCC[C@H](NC(=O)[C@H](CCCCNC(=O)[C@H](CCCNC(=N)N)NC(=O)[C@H](Cc1c[nH]c2ccccc12)NC(=O)[C@H](CCCNC(=N)N)NC(=O)[C@H](Cc1c[nH]c2ccccc12)NC(C)=O)NC(=O)[C@H](CCCNC(=N)N)NC(=O)[C@H](Cc1c[nH]c2ccccc12)NC(=O)[C@H](CCCNC(=N)N)NC(=O)[C@H](Cc1c[nH]c2ccccc12)NC(C)=O)C(=O)NCCC(N)=O [(Ac—WRWR)4-lys2-Lys-Beta-Ala-NH2] (I: Ac-WRWRK([Arg-Trp-Arg-Trp-Ac])K[βAla]-NH2 / II: Ac-WRWRK([Arg-Trp-Arg-Trp-Ac]); amide I:6-II:C)
Antimicrobial activity IC50 [5]: 15.5 µg/mL
Antimicrobial activity IC50 (S Aureus (ATCC BAA-44)): 12.5 µg/mL
Antimicrobial activity IC50 (E. Coli (D31) [6]): 9.5 µg/mL
Hemolytic activity HD50 (fresh sheep erythrocytes [7]): 137 µg/mL

N=C(N)NCCC[C@H](NC(=O)[C@H](Cc1c[nH]c2ccccc12)NC(=O)[C@@H](N)CCCNC(=N)N)C(=O)N[C@@H](Cc1c[nH]c2ccccc12)C(N)=O [(RW)2—NH2] (H-RWRW-NH2)
HD50 Red blood cell (fresh sheep erythrocytes [2]): 3700 µM
IC50 (S. aureus (ATCC BAA-44)): 210 µM
IC50 (E. Coli (D31) [3]): 730 µM
